Converted amounts (≈) assume the structure as drawn. “And” between values parts separate entries of the source, which are not always exact repeats. Equal values may be shown once.
What was measured:
Leishmania infantum = experiment: DNDI: Leish (macro) in Vitro; assay type: functional, organism-based, MHOM/MA(BE)/67
[1] = (§1) DNDI: Cytotoxicity in vitro, against rat skeletal myoblast (L-6) cells; settings: L-6 cells (skeletal myoblasts), IC50
[2] = tested on: Trypanosoma brucei rhodesiense; experiment: DNDI: HAT in Vitro; assay type: functional, organism-based, ATCC 30027
Trypanosoma cruzi [3] = experiment: (§2) DNDI: Chagas in Vitro; assay type: functional, Tulahuen C4 (LacZ)
Trypanosoma cruzi [4] = experiment: as §2; assay type: functional, organism-based, Tulahuen C4 (LacZ)
[5] = DNDI: Lipophilicity (gLogD) at pH 7.4; settings: buffer, pH 7.4, logD
[6] = DNDI: Lipophilicity (gLogD) at pH 3; settings: buffer, pH 3, logD
L6 = experiment: as §1; settings: L-6 cells (skeletal myoblasts)
in vitro [7] = settings: human, microsomes
in vitro [8] = settings: mouse, microsomes
in vitro [9] = settings: mouse, microsomes; remark: listed apart in the source
[10] = DNDI: Solubility in phosphate buffer at pH 6.5 determined by nephelometry; settings: phosphate buffer, pH 6.5, Kinetic
[11] = DNDI: Solubility in 0.01M HCl at pH 2 determined by nephelometry; settings: 0.01M HCl, pH 2, Kinetic
in vitro [12] = settings: human, microsomes, t (1 / 2)
Cytochrome P450 3A4 = Cytochrome P450 3A4 (Homo sapiens, UniProt P08684); experiment: DNDI: Human CYP3A4 inhibition determined using 6b-hydroxylation of testosterone
in vitro [13] = settings: human, microsomes, EH
[14] = DNDI: Cytotoxicity in vitro, against human lung fibroblast (MRC-5) cells; settings: MRC-5 cells (lung fibroblasts)
CYP3A4 [15] = target: T1, CYP3A4 (Homo sapiens, UniProt P08684); experiment: DNDI: Human CYP3A4 inhibition at 10 uM determined using 6b-hydroxylation of testosterone; settings: probe testosterone (6b-hydroxylation)
CYP3A4 [16] = target: T1, CYP3A4; experiment: DNDI: Human CYP3A4 inhibition at 1 uM determined using 6b-hydroxylation of testosterone; settings: probe testosterone (6b-hydroxylation)
Trypanosoma cruzi [17] = experiment: DNDI: Chagas in vivo at 20 mg/kg, 20 days 2x; assay type: functional, Tulahuen Swiss po
[18] = Trypanosoma cruzi, Tulahuen C4 (LacZ)

Cytochrome P450 3A4, sequence (P08684 whole entry): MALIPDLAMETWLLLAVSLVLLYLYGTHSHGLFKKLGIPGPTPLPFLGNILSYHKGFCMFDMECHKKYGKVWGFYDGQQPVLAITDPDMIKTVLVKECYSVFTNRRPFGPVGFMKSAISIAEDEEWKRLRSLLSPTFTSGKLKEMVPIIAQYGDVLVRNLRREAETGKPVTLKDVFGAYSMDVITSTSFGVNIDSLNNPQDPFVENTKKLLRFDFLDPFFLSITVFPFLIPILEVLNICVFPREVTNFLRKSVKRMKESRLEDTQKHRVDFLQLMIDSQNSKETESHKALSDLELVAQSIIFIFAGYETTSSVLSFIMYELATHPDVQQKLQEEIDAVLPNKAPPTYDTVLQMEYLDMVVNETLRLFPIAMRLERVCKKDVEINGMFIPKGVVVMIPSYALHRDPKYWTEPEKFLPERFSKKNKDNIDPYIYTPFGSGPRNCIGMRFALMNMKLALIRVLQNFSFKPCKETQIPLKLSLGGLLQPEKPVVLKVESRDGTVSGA
T1 sequence (P08684 whole entry): as above

Compound | IC50 (Leishmania infantum) | IC50 [1] | IC50 ([2]; Trypanosoma brucei, ATCC 30027) | IC90 (Trypanosoma cruzi [3]; [18]) | IC50 (Trypanosoma cruzi [4]; [18]) | chromatographic logD [5] | chromatographic logD [6] | IC50 (L6) | microsomal CLint (in vitro [7]) | solubility kinetic [10] | IC90 (Trypanosoma cruzi [3]) | solubility kinetic [11] | IC50 (Trypanosoma cruzi [4]) | half-life (in vitro [12]) | IC50 (Cytochrome P450 3A4) | hepatic extraction ratio (in vitro [13]) | IC50 [14] | inhibition at 10 µM (CYP3A4 [15]) | inhibition at 1 µM (CYP3A4 [16]) | further results
CN1CCCC(CNCC(O)COc2ccc3cc(Br)ccc3c2)C1 (configuration not stated) | 2030 nM and 1700 nM and 540 nM | 19 µM | 7120 nM | > 10 µM | 5.56 µM | – | – | – | – | – | – | – | – | – | – | – | – | – | – | –
CO/N=C(\C)c1ccc(-n2ccnc2)c(NC(=O)c2cnc(-c3ccccn3)s2)c1 | – | 68 µM | > 10000 nM | 0.0194 µM | 0.00293 µM | 2.7 | 1.8 | > 100 µM | 20 µL/min/mg | 6.3 µg/mL (≈ 15.1 µM) | 0.017 µM | > 100 µg/mL | 0.0055 µM | 85 min | – | – | – | – | – | half-life (in vitro [8]): 23 min; microsomal CLint (in vitro [9]): 75 µL/min/mg
CC(C)N(C)CC(O)COc1ccc2cc(Br)ccc2c1 (configuration not stated) | 6730 nM and 2380 nM | 19.2 µM | – | 8.78 µM | > 10 µM | 3.6 | 2.6 | 34.8 µM | < 7 µL/min/mg | > 100 µg/mL | 8.95 µM and 8.79 µM and > 10 µM | > 100 µg/mL | 6.4 µM and 5.43 µM and 5.75 µM and 5.78 µM and 6.57 µM | > 250 min | > 20000 nM | < 0.23 | > 64 µM | – | – | IC50 [2]: 507 nM and 1550 nM
CO/N=C(\C)c1ccc(-n2ccnc2)c(NC(=O)c2cncc(-c3ccccc3)n2)c1 | – | 4.16 µM | – | 0.769 µM | 0.0062 µM | 3.7 | 2.8 | 6.36 µM | 117 µL/min/mg | 3.1 µg/mL (≈ 7.52 µM) | 0.639 µM | > 50 µg/mL | 0.0053 µM | 15 min | < 1000 nM | 0.82 | – | 91.9% | 75.9% | –
CS(=O)(=O)N(Cc1cnc[nH]1)c1ccc(-c2nc3ccccc3s2)cc1 | – | – | – | – | – | 2.3 | 1.6 | – | 55 µL/min/mg | – | – | > 100 µg/mL | – | 32 min | 1500 nM | 0.68 | – | 85% | 48% | PCR cure rate (Trypanosoma cruzi [17]): 0%; Parasitemia clearance after immunosuppression (Trypanosoma cruzi [17]): 0%; Parasitemia clearance after treatment (Trypanosoma cruzi [17]): 100%
CS(=O)(=O)N(Cc1c[nH]cn1)c1ccc(-c2ccc(F)cc2)cc1F | – | > 100 µM | – | 0.0084 µM | 0.0022 µM | 2.3 | 1.6 | – | 28 µL/min/mg | – | 0.0091 µM | > 100 µg/mL | 0.0026 µM | 61 min | < 1000 nM | 0.52 | – | 86.1% | 51.6% | –
CN(CC(O)COc1ccc2cc(Br)ccc2c1)C1CCCCC1 (configuration not stated) | 1680 nM and 2000 nM | 16.6 µM | – | 8.48 µM | 4.55 µM | 3.6 | 2.6 | 17 µM | 13 µL/min/mg | > 100 µg/mL | 7.84 µM | > 100 µg/mL | 4.64 µM | 132 min | > 10000 nM | 0.34 | > 64 µM | 11% | 5% | IC50 (Leishmania infantum; Leishmania infantum, MHOM/MA(BE)/67): 1260 nM
CCN(c1ccccc1)S(=O)(=O)c1ccc(NC(=O)CN(C)C2CCN(C)CC2)c(Cl)c1.Cl | 11300 nM and 24000 nM | – | 1420 nM | – | – | 4.4 | 2.9 | – | 169 µL/min/mg | > 100 µg/mL | – | > 100 µg/mL | – | 10 min | – | – | 40.6 µM | – | – | –
